Tests used:
[1] = tested on: inflammatory immunocytes and neutrophils in BALF; test: COPD mouse model (LPS+CS, i.t.): immunocytes, neutrophils and T lymphocytes in BALF; type: in vivo, BALB/c mice; conditions: 15 mg/kg, p.o.
Method: Specific pathogen-free male BALB/c mice (about 18-20 g), aged 8 weeks, which were routinely screened serologically for relevant respiratory pathogens, were purchased from ORIENT Co. (www.orient.co.kr, Seoul, Korea) and bred allowing to access freely to feed and water in breeding room controlling the temperature of 22±2° C., and humidity of 55±15% at the light-dark cycle for 12 hours and acclimated with the experimental environment for 1 week. […] 8 weeks aged BALB/c male mice was anaesthetized with 7% chloral hydrate and 100 μl of LPS+CS mixture {LPS (100 μg/ml)+standard cigarette extract (Cigarette smoking (CS), 4 mg/ml)=1:1} was inhaled to mice (i.t.) for three weeks once a week to prepare COPD animal model. Briefly, 100 μl of LPS+CS mixture was evenly inhaled to nose and mouth of fastened mice (i.t). […] After the end of experiment, the blood, BALF, and pneumonocyte of each mice were isolated and collected to test. After blood collection, 1 ml of FBS-free/DMEM medium contained in injector was injected to the trachea of autopsied mice, and the mice was fixed with string to circulate the blood three times and isolate the cell from BALF. […] The isolated PBMCs, BAL (Bronchoalveolar lavage), and pneumocyte were adjusted to 5×10^5 cells and performed to immunofluorescence staining at 4° C. PE-anti-CD3e (553064, BD Pharmingen, USA), FITC-anti-CD8 (553031, BD Pharmingen, USA), PE-anti-CD4 (553047, BD Pharmingen, USA), PE-anti-Gr-1 (553128, BD Pharmingen, USA), and FITC-anti-neutrophil (ab55453, Abcam, UK) were added thereto, respectively, and reacted for 30 mins in ice. After the reaction, the cells were washed with phosphate buffered physiological saline solution more than three times and the cell frequency (%) of CD3^+CD4^+& CD3^+CD8^+, and Gr-1^+Neutrophil^+ was determined using by Cell Quest program (643274, BD Biosciences, USA) of the flow cytometer (FACSCalibur, Becton, Dickinson, USA) and the absolute total number in each tissue was calculated by applying total cells.

IL-1β, IL-6, and TNF-α = test: COPD rat model (cigarette smoke): cytokine release in BALF by ELISA; type: in vivo, Sprague-Dawley rat; conditions: ATC2 and Verproside 30 mg/kg, Daxas 1 mg/kg, p.o.
Method: (§2) The exposure of cigarette smoke was performed by using a cigarette smoke generator (CH Technology Corp. USA). In a detail, 1 hour after the orally administration of test samples using by Head/nose-only exposure unit (TSE System, German) according to nose-only method, the cigarette smoke was exposed by inhalation for 3 days every hour. 8 puffs (volume 35 ml, duration 2 sec, interval 1 time/min) per one piece of standard cigarette was performed in the experiment. The tested groups were divided into five groups, i.e., (i) normal group with no treatment (normal control, NC), (ii) control group exposed with cigarette smoke (COPD), (iii) test sample group treated with Daxas (1 mg/kg, p.o) 1 hr prior to cigarette smoke exposure (DA), (iv) test sample group treated with ATC2 (30 mg/ml, p.o) 1 hr prior to cigarette smoke exposure (YPL), and (v) test sample group treated with Verproside (30 mg/ml, p.o) 1 hr prior to cigarette smoke exposure (Ver). After the end of experiment, the blood, BALF, and pneumonocyte of each rat were isolated and collected to test.
The level of IL-1β, IL-6, and TNF-a (R&D System, USA) in BALF isolated from the rat was determined by enzyme-linked immuno-sorbent assay (ELISA). The analysis of each cytokine was performed according to the manufacturer's manual, and the absorbance was determined at 450 nm by ELISA leader (340PC384, Molecular Devices, USA).

[2] = biological target: ADBR2 (beta-2 adrenergic receptor) GPCR (Homo sapiens, UniProt P07550); test: ADBR2 GPCR-targeting cell-based assay (spot formation); conditions: 20 micromole; U2OS cells stably expressing ADBR2 GPCR
Sequence of ADBR2 (beta-2 adrenergic receptor) GPCR (P07550 whole entry): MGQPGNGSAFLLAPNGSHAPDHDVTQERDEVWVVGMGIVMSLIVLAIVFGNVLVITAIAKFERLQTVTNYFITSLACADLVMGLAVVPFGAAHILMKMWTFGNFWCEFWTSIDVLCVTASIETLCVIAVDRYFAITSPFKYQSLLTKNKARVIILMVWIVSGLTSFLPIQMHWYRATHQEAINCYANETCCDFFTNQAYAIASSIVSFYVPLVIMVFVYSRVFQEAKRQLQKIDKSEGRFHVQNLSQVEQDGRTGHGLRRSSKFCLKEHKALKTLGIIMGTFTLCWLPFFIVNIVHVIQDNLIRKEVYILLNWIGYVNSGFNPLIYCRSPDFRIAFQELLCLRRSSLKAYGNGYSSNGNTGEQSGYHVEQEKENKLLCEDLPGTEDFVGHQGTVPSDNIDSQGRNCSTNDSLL

[3] = tested on: KC/CXCL-1 (Chemokines Gro-α); test: COPD mouse model (LPS+CS): KC/CXCL-1 in BALF by ELISA; type: in vivo, BALB/c mice; conditions: 15 mg/kg, p.o.
Method: (§1) 8 weeks aged BALB/c male mice was anaesthetized with 7% chloral hydrate and 100 μl of LPS+CS mixture {LPS (100 μg/ml)+standard cigarette extract (Cigarette smoking (CS), 4 mg/ml)=1:1} was inhaled to mice (i.t.) for three weeks once a week to prepare COPD animal model. Briefly, 100 μl of LPS+CS mixture was evenly inhaled to nose and mouth of fastened mice (i.t). […] After the end of experiment, the blood, BALF, and pneumonocyte of each mice were isolated and collected to test. The level of IL-1β, IL-6, TNF-a, IL-17, MCP-1, and GRO-a (BioSource, USA) in BALF isolated from mice was determined by enzyme-linked immuno-sorbent assay. Respective antibodies against L-1β, IL-6, TNF-a, IL-17, MCP-1, and GRO-a were diluted with a coating buffer solution (291195, R&D System, USA), coated on a microwell and left alone for overnight at 4° C. Each well was washed three times with washing buffer solution and 100 μl of 10-fold diluted serum was added thereto. […] The solution was left alone for 30 mins in shadow and added with 50 μl of stop solution (DY994, R&D system, USA) to determine the absorbance using by ELISA leader at 450 nm (340PC384, Molecular Devices, USA).

[4] = tested on: inflammation in lung tissue; test: COPD rat model: histopathological examination of lung tissue; type: in vivo, Sprague-Dawley rat; conditions: p.o.
Method: (§3) The exposure of cigarette smoke was performed by using a cigarette smoke generator (CH Technology Corp. USA). In a detail, 1 hour after the orally administration of test samples using by Head/nose-only exposure unit (TSE System, German) according to nose-only method, the cigarette smoke was exposed by inhalation for 3 days every hour. 8 puffs (volume 35 ml, duration 2 sec, interval 1 time/min) per one piece of standard cigarette was performed in the experiment. The tested groups were divided into five groups, i.e., (i) normal group with no treatment (normal control, NC), (ii) control group exposed with cigarette smoke (COPD), (iii) test sample group treated with Daxas (1 mg/kg, p.o) 1 hr prior to cigarette smoke exposure (DA), (iv) test sample group treated with ATC2 (30 mg/ml, p.o) 1 hr prior to cigarette smoke exposure (YPL), and (v) test sample group treated with Verproside (30 mg/ml, p.o) 1 hr prior to cigarette smoke exposure (Ver).
Delivered lung was promptly fixed with 10% formaldehyde solution (F0161, SAMCHUN, Korea), and cut into slices. The slices were washed with running water for 8 hrs, embedded with epoxy, cut into slices with microtome (CUT4050, MicroTec, Germany) and stained with Hematoxylin (MHS-16, Sigma-Aldrich, USA) & Eosin (HT110-1-32, Sigma-Aldrich, USA). […]

[5] = tested on: neutrophils and total immunocytes in BALF; test: COPD rat model (cigarette smoke): immunocytes in BALF; type: in vivo, Sprague-Dawley rat; conditions: ATC2 and Verproside 30 mg/kg
Method: 3 kinds of test samples, i.e., ATC2 (30 mg/kg), Verproside (30 mg/kg), Daxas (main ingredient: Roflumilast, 1 mg/kg) were dissolved in PBS and uses as test samples.
ATC2, Verproside, Daxas were orally administrated to the mice at the dose of 4 mg/kg, 1 hour before prior the intratracheal instillation (i.t.).
as §2
After finishing the experiment, rats were anesthetized with Zoletil50 (3VX9, Virbac, France, p.o) and the blood was delivered through caudal veins. In order to isolate BALF from lung, the bronchus of right lung was ligated with suture and then performed to tracheotomy. IV-use catheter (16 GA, 3S-Cath, Dukwoo, Korea) was put into the bronchus, and both of bronchus and catheter (16 GA, 3S-Cath, Dukwoo, Korea) were fixed with suture. […] The light lung ligated with suture was isolated, fixed with 10% neutral formalin solution, and the remaining lung tissue was reserved in refrigerator at −70° C. […]

TNF-α = test: COPD mouse model (LPS+CS): TNF-α in BALF by ELISA; type: in vivo, BALB/c mice; conditions: 15 mg/kg, p.o.
Method: as §1

MMP-9 and NF-κB = test: COPD rat model: expression of proinflammatory proteins in lung tissue (Western blotting); type: in vivo, Sprague-Dawley rat; conditions: ATC2 and Verproside 30 mg/kg, Daxas 1 mg/kg, p.o.
Method: as §3
The protein obtained from homogenization was performed to electrophoresis at the dose of 30 μg/lane and transferred using by polyvinylidene difluoride (PVDF) membrane (IPVH00010, Millipore, USA).

Structure (SMILES): O=C(O[C@H]1[C@@H]2C=CO[C@@H](O[C@@H]3O[C@H](CO)[C@@H](O)[C@H](O)[C@H]3O)[C@@H]2[C@@]2(CO)O[C@@H]12)c1ccc(O)c(O)c1 [verproside, 6-O-(3,4-dihydroxybenzoyl) catalpol]
- number of total immunocyte in BALF compared with control group [1]: sharply reduced
- reduction of number of neutrophils (Diff-Quik stained, cytospin) in BALF compared with control group [1]: more than 94.2%
- reduction of total absolute cell number of CD4+ T cell in BALF compared with control group [1]: more than 32.9%
- reduction of total absolute cell number of CD8+ T cell in BALF compared with control group [1]: not significantly different
- reduction of total absolute cell number of Neutrophils+Gr-1+ cell in BALF compared with control group [1]: more than 93.9%
- level of cytokines (IL-1β, IL-6, TNF-α) in BALF compared with COPD induced group (IL-1β, IL-6, and TNF-α): significantly reduced level
- spot formation [2]: did not show spot formation
- reduction of chemokine KC/CXCL-1 in BALF compared with control group [3]: more than 57.4%
- inhibitory effect on inflammation in lung tissue relative to Daxas group ([4]; ATC2 and Verproside 30 mg/kg versus Daxas 1 mg/kg): more potent
- inflammation (infiltration of inflammatory cells) in lung tissue compared with COPD induced group ([4]; ATC2 and Verproside 30 mg/kg, Daxas 1 mg/kg): significant decreased
- ratio of the number of neutrophils to that of immunocytes (counting 300 immunocytes) compared with COPD induced group ([5]; Daxas 1 mg/kg, p.o.): remarkably reduced ratio
- level of neutrophils in BALF compared with COPD induced group ([5]; Daxas 1 mg/kg, p.o. 1 hr prior to cigarette smoke exposure): remarkably reduced level
- level of total immunocytes in BALF compared with COPD induced group ([5]; p.o. 1 hr prior to cigarette smoke exposure): remarkably reduced level
- reduction of TNF-α in BALF compared with control group (TNF-α): more than 42.2%
- expression of proinflammatory protein (MMP-9, NF-κB) in lung tissue compared with COPD induced group (MMP-9 and NF-κB): significant decreased

Source: patent US10172816B2, “Method of treating chronic obstructive pulmonary disease (CPD) with verproside” (YUNGJIN PHARMACEUTICAL CO., LTD, priority 2013, dated 2019)
